In patent publication US20260365628A1, “SUBSTITUTED 3,4-DIHYDROQUINOLINONE INHIBITORS OF TSHR” (Septerna, Inc., priority 2022, published 2026) one finds IC50 data, which are given here for 34 compounds.

The target in the experiment is T1, hTSHR (Homo sapiens, UniProt P16473).
T1 construct: expressed in transfected cells
As to the kind of experiment: hTSHR TR-FRET cAMP Assay (inhibition of M22-stimulated cAMP production). As to conditions: Expi293F Inducible cells stably expressing hTSHR; cAMP HTRF; stimulated with EC80 of anti-TSHR antibody M22; 15 min compound preincubation, 30 min at 37° C.; read-out: Activity (IC50 bins). It counts as cell-based. In outline: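 Readout was a cAMP HTRF ratio of 655/620 nm after lysis, scaled between the EC80 M22 signal (0% inhibition) and no-agonist vehicle (100%). Frozen induced Expi293F-hTSHR cells saw test compounds (0.5% DMSO) for 15 min at 37 °C before 30 min of M22 stimulation at EC80.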

Some results are limits rather than exact numbers.

T1 sequence (P16473 21-764): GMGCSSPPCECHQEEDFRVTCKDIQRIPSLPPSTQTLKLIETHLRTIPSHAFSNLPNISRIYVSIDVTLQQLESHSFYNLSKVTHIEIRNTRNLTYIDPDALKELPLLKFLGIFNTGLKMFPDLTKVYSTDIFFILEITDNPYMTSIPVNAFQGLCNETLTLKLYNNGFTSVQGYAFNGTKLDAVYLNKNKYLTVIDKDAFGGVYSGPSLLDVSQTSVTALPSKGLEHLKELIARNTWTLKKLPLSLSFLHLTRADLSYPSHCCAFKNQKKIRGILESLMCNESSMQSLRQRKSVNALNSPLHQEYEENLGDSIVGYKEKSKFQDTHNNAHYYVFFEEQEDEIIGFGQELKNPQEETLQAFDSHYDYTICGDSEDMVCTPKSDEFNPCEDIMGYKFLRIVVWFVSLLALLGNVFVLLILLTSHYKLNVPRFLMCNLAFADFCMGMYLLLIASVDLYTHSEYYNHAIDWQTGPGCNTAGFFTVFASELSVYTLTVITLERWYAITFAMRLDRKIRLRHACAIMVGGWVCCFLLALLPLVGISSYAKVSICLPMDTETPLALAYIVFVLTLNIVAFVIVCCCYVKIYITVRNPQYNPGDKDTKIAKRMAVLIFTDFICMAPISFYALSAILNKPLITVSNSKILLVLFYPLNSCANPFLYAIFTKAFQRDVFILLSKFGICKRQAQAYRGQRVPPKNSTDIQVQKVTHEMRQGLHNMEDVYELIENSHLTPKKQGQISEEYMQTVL

Take `CC(c1cccc(CCOCc2ccncc2)c1)n1c(=O)cnc2cc(NC(=O)NC(C)(C)C)ccc21` (stereo not shown) [Example 250, 1-(tert-butyl)-3-(2-oxo-1-(1-(3-(2-(pyridin-4-ylmethoxy)ethyl)phenyl)ethyl)-1,2-dihydro-quinoxalin-6-yl)urea]: the IC50 was above 1000 nM. Take `Cc1c(NC(=O)NC(C)(C)C)ccc2c1ncc(=O)n2[C@@H](C)c1cccc(OC(F)(F)F)c1` [Example 209, (S)-1-(tert-butyl)-3-(5-methyl-2-oxo-1-(1-(3-(trifluoromethoxy)phenyl)ethyl)-1,2-dihydroquinoxalin-6-yl)urea]: the IC50 fell in the range of 100 to 1000 nM. On to `Cc1nc2cc(NC(=O)NC(C)(C)C)ccc2n([C@@H](C)c2ccccc2)c1=O` [Example 179, 3-tert-butyl-1-{3-methyl-2-oxo-1-[(1S)-1-phenylethyl]quinoxalin-6-yl}urea], for which the IC50 was in the range of 100 to 1000 nM. Take `CC(c1cc(C(F)(F)F)ccn1)n1c(=O)cnc2cc(NC(=O)NC(C)(C)C)ccc21` (stereo not shown) [Example 253, 1-(tert-butyl)-3-(2-oxo-1-(1-(4-(trifluoromethyl)pyridin-2-yl)ethyl)-1,2-dihydro-quinoxalin-6-yl)urea]: the IC50 is above 1000 nM.

For `C[C@H]1Oc2cc(NC(=O)NC3(C)CC(F)(F)C3)ccc2N([C@@H](C)c2ccccc2)C1=O` [Example 260, 1-(3,3-difluoro-1-methylcyclobutyl)-3-((R)-2-methyl-3-oxo-4-((S)-1-phen-ylethyl)-3,4-dihydro-2H-benzo[b][1,4]oxazin-7-yl)urea], the IC50 is 100 to 1000 nM.

For the compound `C[C@H]1Oc2cc(NC(=O)NC3(C(F)(F)F)CCCC3)ccc2N(Cc2cccc(C(F)(F)F)n2)C1=O` [Example 234, (R)-1-(2-methyl-3-oxo-4-((6-(trifluoromethyl)pyridin-2-yl)methyl)-3,4-dihydro-2H-benzo[b][1,4]oxazin-7-yl)-3-(1-(trifluoromethyl)cyclopentyl)urea], the IC50 is below 100 nM. As for `C[C@@H](c1ccccc1)N1C(=O)CCc2cc(NC(=O)NC(C)(C)C)ccc21` [Example 13, (S)-1-(tert-butyl)-3-(2-oxo-1-(1-phenylethyl)-1,2,3,4-tetrahydroquinolin-6-yl)urea], the figure is below 100 nM. The figure for `CC(C)(C)OC(=O)Nc1ccc2c(c1)CCC(=O)N2Cc1ccccc1` [Example 9, tert-butyl (1-benzyl-2-oxo-1,2,3,4-tetrahydroquinolin-6-yl)carbamate] is below 100 nM. The figure for `C[C@H]1Oc2cc(NC(=O)NC(C)(C)C)c(C(F)(F)F)cc2N([C@@H](C)c2ccccc2)C1=O` [Example 349, 1-(tert-butyl)-3-((R)-2-methyl-3-oxo-4-((S)-1-phenylethyl)-6-(trifluoromethyl)-3,4-dihydro-2H-benzo[b][1,4]oxazin-7-yl)urea] is below 100 nM; for `Cc1nc2cc(NC(=O)NC(C)(C)C)ccc2n(Cc2ccccc2)c1=O` [Example 272, 1-(1-benzyl-3-methyl-2-oxo-1,2-dihydroquinoxalin-6-yl)-3-(tert-butyl)urea] it is above 1000 nM; for `CC(C)(NC(=O)Nc1ccc2c(c1)ncc(=O)n2Cc1ccccc1)C(F)(F)F` [Example 198, 1-(1-benzyl-2-oxo-1,2-dihydroquinoxalin-6-yl)-3-(1,1,1-trifluoro-2-methylpropan-2-yl)urea] it is 100 to 1000 nM.

Consider `CN1Cc2cc(NC(=O)NC(C)(C)C)ccc2N(Cc2cccc(C(F)(F)F)c2)C1=O` [Example 70, 1-(tert-butyl)-3-(3-methyl-2-oxo-1-(3-(trifluoromethyl)benzyl)-1,2,3,4-tetrahydroquinazolin-6-yl)urea], for which the IC50 was below 100 nM. Regarding `C[C@@H](c1cccc(OC(F)(F)F)c1)n1c(=O)cnc2cc(NC(=O)NC3(C)CCCC3)ccc21` [Example 203, (S)-1-(1-methylcyclopentyl)-3-(2-oxo-1-(1-(3-(trifluoromethoxy)phenyl)ethyl)-1,2-dihydroquinoxalin-6-yl)urea], the IC50 is 100 to 1000 nM. As for `C[C@H]1Oc2nc(NC(=O)NC(C)(C)C)c(C#N)cc2N(Cc2cccc(C(F)F)c2)C1=O` [Example 371, (R)-1-(tert-butyl)-3-(7-cyano-1-(3-(difluoromethyl)benzyl)-3-methyl-2-oxo-2,3-dihydro-1H-pyrido[2,3-b][1,4]oxazin-6-yl)urea], the IC50 is below 100 nM. For `C[C@H]1Oc2nc(NC(=O)NC(C)(C)C)c(Cl)cc2N(Cc2ccccc2)C1=O` [Example 355, 1-[(3R)-1-benzyl-7-chloro-3-methyl-2-oxo-3H-pyrido[2,3-b][1,4]oxazin-6-yl]-3-tert-butylurea], the IC50 lay within 100 to 1000 nM. Regarding `CC(c1ccccc1)N1C(=O)CCc2cc(NC(=O)NC(C)(C)C)ccc21` (stereo not shown) [Example 3, 1-(tert-butyl)-3-(2-oxo-1-(1-phenylethyl)-1,2,3,4-tetrahydroquinolin-6-yl)urea], the IC50 is below 100 nM. The figure for `CC(C)(C)NC(=O)Nc1ccc2c(c1)OCC(=O)N2Cc1cccc([C@@H](O)C(F)(F)F)c1` [Example 78, (R)-1-(tert-butyl)-3-(3-oxo-4-(3-(2,2,2-trifluoro-1-hydroxyethyl)ben-zyl)-3,4-dihydro-2H-benzo[b][1,4]oxa-zin-7-yl)urea] is 100 to 1000 nM; for `CC(c1ccc2cnn(CCC(F)(F)F)c2c1)n1c(=O)cnc2cc(NC(=O)NC(C)(C)C)ccc21` (stereo not shown) [Example 249, 1-(tert-butyl)-3-(2-oxo-1-(1-(1-(3,3,3-trifluoropropyl)-1H-indazol-6-yl)ethyl)-1,2-dihydro-quinoxalin-6-yl)urea] it is above 1000 nM. As for `C[C@@H](c1cccc(OC(F)(F)F)c1)n1c(=O)cnc2cc(NC(=O)C3CCC3(C)C)ccc21` (stereo in doubt) [Example 219, (S)-2,2-dimethyl-N-(2-oxo-1-((S)-1-(3-(trifluoromethoxy)phenyl)ethyl)-1,2-dihydroquinoxalin-6-yl) cyclobutane-1-carboxamide], the figure is below 100 nM; as for `CC1Oc2nc(NC(=O)NC(C)(C)C)c(C(F)(F)F)cc2N(Cc2ccccc2)C1=O` (stereo in doubt) [Example 378, (R)-1-(1-benzyl-3-methyl-2-oxo-7-(trifluoromethyl)-2,3-dihydro-1H-pyrido[2,3-b][1,4]oxazin-6-yl)-3-(tert-butyl)urea], 100 to 1000 nM.

Consider `CC1Oc2cc(NC(=O)NC(C)(C)C)ccc2N(Cc2cccc(Cl)c2)C1=O` (single isomer, unassigned) [Example 43], for which the IC50 is below 100 nM. The figure for `C[C@@H](c1cccc(C(F)(F)F)c1)N1C(=O)COc2cc(NC(=O)NC(C)(C)C)ccc21` [Example 62, (S)-1-(tert-butyl)-3-(3-oxo-4-(1-(3-(trifluoromethyl)phenyl)ethyl)-3,4-dihydro-2H-benzo[b][1,4]oxazin-7-yl)urea] is below 100 nM; for `C[C@H]1Oc2cc(NC(=O)NC(C)(C)C)ccc2N([C@@H](C)c2cccc(Cl)c2)C1=O` [Example 183, 1-(tert-butyl)-3-((R)-4-((S)-1-(3-chlorophenyl)ethyl)-2-methyl-3-oxo-3,4-dihydro-2H-benzo[b][1,4]oxazin-7-yl)urea] it is below 100 nM; for `C[C@H]1Cc2cc(NC(=O)NC(C)(C)C)c(F)cc2N(Cc2ccccc2)C1=O` (single isomer, unassigned) [Example 333] it is above 1000 nM.

As to `C[C@@H]1Oc2cc(NC(=O)NC(C)(C)C)ccc2N(Cc2cccc(C(F)(F)F)c2)C1=O` [Example 82], the IC50 lay within 100 to 1000 nM. Take `C[C@H](c1ccccc1)N1C(=O)N(C)Cc2cc(NC(=O)NC(C)(C)C)ccc21` [Example 45A, 3-tert-butyl-1-{3-methyl-2-oxo-1-[(1R)-1-phenylethyl]-4H-quinazolin-6-yl}urea]: the IC50 was above 1000 nM. `Cc1cccc([C@H](C)n2c(=O)cnc3cc(NC(=O)NC(C)(C)C)ccc32)c1` [Example 132, (S)-1-(tert-butyl)-3-(2-oxo-1-(1-(m-tolyl)ethyl)-1,2-dihydroquinoxalin-6-yl)urea]: the IC50 was in the range of 100 to 1000 nM. The figure for `C[C@H]1Oc2cc(NC(=O)NC3(C(F)(F)F)COC3)ccc2N([C@@H](C)c2ccccc2)C1=O` [Example 263, 1-((R)-2-methyl-3-oxo-4-((S)-1-phen-ylethyl)-3,4-dihydro-2H-benzo[b][1,4]oxazin-7-yl)-3-(3-(trifluoromethyl)-oxetan-3-yl)urea] is 100 to 1000 nM; for `C[C@H](c1cccc(Cl)c1)N1C(=O)CCc2nc(NC(=O)NC(C)(C)C)ccc21` [Example 291, (R)-1-(tert-butyl)-3-(5-(1-(3-chlorophenyl)ethyl)-6-oxo-5,6,7,8-tetrahydro-1,5-naphthyridin-2-yl)urea] it is 100 to 1000 nM.

Consider `CC[C@H]1Oc2cc(NC(=O)NC(C)(C)C)ccc2N(Cc2ccccc2)C1=O` [Example 277, (R)-1-(4-benzyl-2-ethyl-3-oxo-3,4-dihydro-2H-benzo[b][1,4]oxazin-7-yl)-3-(tert-butyl)urea], for which the IC50 is above 1000 nM. With `CC(C)(C)NC(=O)Nc1ccc2c(c1)CCC(=O)N2Cc1cc(C(F)(F)F)ccc1C#N` [Example 55, 3-tert-butyl-1-(1-{[2-cyano-5-(trifluoromethyl)phenyl]methyl}-2-oxo-3,4-dihydroquinolin-6-yl) urea], the IC50 is below 100 nM. Take `CC(C)(C)NC(=O)Nc1ccc2c(c1)OCC(=O)N2Cc1cccc(Cl)c1` [Example 33, 3-tert-butyl-1-{4-[(3-chlorophenyl)methyl]-3-oxo-2H-1,4-benzoxazin-7-yl}urea]: the IC50 was below 100 nM. As for `C[C@H]1Oc2c(cc(C#N)c(NC(=O)NC(C)(C)C)c2F)N(Cc2ccccc2)C1=O` [Example 369, (R)-1-(4-benzyl-6-cyano-8-fluoro-2-methyl-3-oxo-3,4-dihydro-2H-benzo[b][1,4]oxazin-7-yl)-3-(tert-butyl)urea], the figure is below 100 nM; as for `C[C@@H](c1cccc(C(F)(F)F)n1)n1c(=O)cnc2cc(NC(=O)CCc3cccc(C(F)(F)F)c3)ccc21` [Example 299, (S)—N-(2-oxo-1-(1-(6-(trifluoromethyl)pyridin-2-yl)ethyl)-1,2-dihydroquinoxalin-6-yl)-3-(3-(trifluoromethyl)phenyl)propanamide], 100 to 1000 nM.
